From patent US9676754B2, “Triazolone compounds and uses thereof” (Inception 2, Inc., priority 2012, dated 2017) come the findings set out here.

Each structure is given as a SMILES string.

The experiment addresses T1, Human PPARα (Homo sapiens, UniProt Q07869).
T1 construct: host or cells: proprietary non-human mammalian cells
T1 sequence (Q07869 1-468): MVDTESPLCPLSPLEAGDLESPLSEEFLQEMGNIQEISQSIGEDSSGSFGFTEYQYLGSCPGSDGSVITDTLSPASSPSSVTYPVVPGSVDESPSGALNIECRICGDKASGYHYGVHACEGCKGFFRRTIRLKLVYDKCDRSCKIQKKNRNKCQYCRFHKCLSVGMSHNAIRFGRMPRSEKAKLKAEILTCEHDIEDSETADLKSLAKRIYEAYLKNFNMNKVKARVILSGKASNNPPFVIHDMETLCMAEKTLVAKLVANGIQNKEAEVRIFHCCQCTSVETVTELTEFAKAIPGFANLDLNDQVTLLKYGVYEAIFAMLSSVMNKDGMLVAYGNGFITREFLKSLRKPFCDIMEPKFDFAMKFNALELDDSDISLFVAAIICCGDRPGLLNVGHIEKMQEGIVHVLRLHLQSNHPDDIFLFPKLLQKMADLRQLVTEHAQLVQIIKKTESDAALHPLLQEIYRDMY
In words: Human PPARα Reporter Assay (luciferase). Conditions: antagonist activity, luciferase reporter cells, overnight incubation; read-out: Human PPARα Reporter Assay-Luciferase IC50. The format is cell-based. How it is done:
Human PPARα Reporter Assay
The screening of test compounds for agonist or antagonist activities against human PPARα receptors was performed using a commercial kit, Human PPARα Reporter Assay System (Indigo Biosciences, Cat. #IB00111).
This nuclear receptor assay system utilizes proprietary non-human mammalian cells engineered to provide constitutive, high-level expression of Human PPARα. Because these cells incorporate a PPARα-responsive luciferase reporter gene, quantifying expressed luciferase activity provides a sensitive surrogate measure of PPARα activity in the treated cells. The primary application of this reporter assay system is in the screening of test samples to quantify any functional activity, either agonist or antagonist, that they may exert against human PPARα. […] Briefly, the reporter cells are dispensed into wells of the assay plate and then immediately dosed with test compounds. Following an overnight incubation, the treatment media are discarded and Luciferase Detection Reagent (LDR) is added. The intensity of light emission from the ensuing luciferase reaction provides a sensitive measure that is directly proportional to the relative level of PPARα activation in the reporter cells.
Turning to `CCOc1ccc(-c2cccc(C(F)(F)CCc3nn(Cc4ccc(C(C)(C)C)cc4)c(=O)n3CC)c2)cc1CC(=O)O` [Example 22, 2-(3′-(3-(1-(4-(tert-Butyl)benzyl)-4-ethyl-5-oxo-4,5-dihydro-1H-1,2,4-triazol-3-yl)-1,1-difluoropropyl)-4-ethoxy-[1,1′-biphenyl]-3-yl)acetic acid], the IC50 was 64 nM. Regarding `CCn1c(CCC(F)(F)c2cccc(-c3ccc(NS(=O)(=O)c4ccccc4)cn3)c2)nn(Cc2ccc(C(C)(C)C)cc2)c1=O` [Example 23, N-(6-(3-(3-(1-(4-(tert-Butyl)benzyl)-4-ethyl-5-oxo-4,5-dihydro-1H-1,2,4-triazol-3-yl)-1,1-difluoropropyl)phenyl)pyridin-3-yl)benzenesulfonamide], the IC50 came out at 659 nM. For the molecule `CCn1c(CCCc2cccc(-c3ccc(OC)c(CC(=O)O)c3)n2)nn(Cc2ccc(C(C)(C)C)cc2)c1=O` [Example 24, 2-(5-(6-(3-(1-(4-(tert-Butyl)benzyl)-4-ethyl-5-oxo-4,5-dihydro-1H-1,2,4-triazol-3-yl)propyl)pyridin-2-yl)-2-methoxyphenyl)acetic acid], the half-maximal inhibitory concentration (IC50) came out at 2530 nM. In the case of `CCn1c(CCCc2cccc(-c3cccc(-c4nnn[nH]4)c3)c2)nn(Cc2ccc(C(C)(C)C)cc2)c1=O` [Example 25, 3-(3-(3′-(1H-Tetrazol-5-yl)-[1,1′-biphenyl]-3-yl)propyl)-1-(4-(tert-butyl)benzyl)-4-ethyl-1H-1,2,4-triazol-5(4H)-one], the IC50 amounted to 2290 nM. Next, `CCOc1ccc(-c2nccc(CCCc3nn(Cc4ccc(C(C)(C)C)cc4)c(=O)n3CC)n2)cc1CC(=O)O` [Example 26, 2-(5-(4-(3-(1-(4-(tert-Butyl)benzyl)-4-ethyl-5-oxo-4,5-dihydro-1H-1,2,4-triazol-3-yl)propyl)pyrimidin-2-yl)-2-ethoxyphenyl)acetic acid]: 1240 nM; `CCOc1ccc(-c2cc(CCCc3nn(Cc4ccc(C(C)(C)C)cc4)c(=O)n3CC)ncn2)cc1CC(=O)O` [Example 27, 2-(5-(6-(3-(1-(4-(tert-Butyl)benzyl)-4-ethyl-5-oxo-4,5-dihydro-1H-1,2,4-triazol-3-yl)propyl)pyrimidin-4-yl)-2-ethoxyphenyl)acetic acid]: 3430 nM; `CCn1c(CCCc2cccc(-c3ccc(CC(=O)O)c(OC)c3)c2)nn(Cc2ccc(C(C)(C)C)cc2)c1=O` [Example 28, (3′-(3-(1-(4-(tert-Butyl)benzyl)-4-ethyl-5-oxo-4,5-dihydro-1H-1,2,4-triazol-3-yl)propyl)-3-methoxy-[1,1′-biphenyl]-4-yl)acetic acid]: 140 nM. For the molecule `CCOc1cc(-c2cccc(CCCc3nn(Cc4ccc(C(C)(C)C)cc4)c(=O)n3CC)c2)ccc1CC(=O)O` [Example 29, (3′-(3-(1-(4-(tert-Butyl)benzyl)-4-ethyl-5-oxo-4,5-dihydro-1H-1,2,4-triazol-3-yl)propyl)-3-ethoxy-[1,1′-biphenyl]-4-yl)acetic acid], the IC50 was 59 nM. Take `CCCOc1cc(-c2cccc(CCCc3nn(Cc4ccc(C(C)(C)C)cc4)c(=O)n3CC)c2)ccc1CC(=O)O` [Example 30, (3′-(3-(1-(4-(tert-Butyl)benzyl)-4-ethyl-5-oxo-4,5-dihydro-1H-1,2,4-triazol-3-yl)propyl)-3-propoxy-[1,1′-biphenyl]-4-yl)acetic acid]: the 50% inhibitory concentration (IC50) stood at 36 nM.
